Data: PubChem BioAssay (NCI)
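Compound exposure: 48 hours, 5 concentrations, 96-well plates. TGI denotes the concentration required for complete inhibition of growth.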

Columns and labels:
Assay in all cases: NCI-60 cell line screen, 48 h
M14 melanoma = test system: M14 melanoma
NCI-H23 lung = test system: NCI-H23 lung
HCT-15 colon = test system: HCT-15 colon
OVCAR-3 ovarian = test system: OVCAR-3 ovarian
A498 renal = test system: A498 renal
SF-295 CNS = test system: SF-295 CNS
DMS 114 small cell lung = test system: DMS 114 small cell lung
MOLT-4 leukemia = test system: MOLT-4 leukemia
HCC-2998 colon = test system: HCC-2998 colon
NCI-H226 lung = test system: NCI-H226 lung
HL-60(TB) leukemia = test system: HL-60(TB) leukemia
786-0 renal = test system: 786-0 renal
SK-MEL-28 melanoma = test system: SK-MEL-28 melanoma
RXF 393 renal = test system: RXF 393 renal
EKVX NSCLC = test system: EKVX NSCLC
MALME-3M melanoma = test system: MALME-3M melanoma
HOP-92 NSCLC = test system: HOP-92 NSCLC
CAKI-1 renal = test system: CAKI-1 renal
SNB-78 CNS = test system: SNB-78 CNS
M19-MEL melanoma = test system: M19-MEL melanoma
UACC-62 melanoma = test system: UACC-62 melanoma
KM12 colon = test system: KM12 colon
HOP-62 NSCLC = test system: HOP-62 NSCLC
OVCAR-4 ovarian = test system: OVCAR-4 ovarian
A549 NSCLC = test system: A549 NSCLC
SR leukemia = test system: SR leukemia
HT29 colon = test system: HT29 colon
OVCAR-8 ovarian = test system: OVCAR-8 ovarian
NCI-H460 lung = test system: NCI-H460 lung
HCT-116 colon = test system: HCT-116 colon
LOX IMVI melanoma = test system: LOX IMVI melanoma
IGROV1 ovarian = test system: IGROV1 ovarian
LXFL 529 NSCLC = test system: LXFL 529 NSCLC
SW-620 colon = test system: SW-620 colon
SF-539 CNS = test system: SF-539 CNS
SF-268 CNS = test system: SF-268 CNS
COLO 205 colon = test system: COLO 205 colon
K-562 leukemia = test system: K-562 leukemia
U251 CNS = test system: U251 CNS
UACC-257 melanoma = test system: UACC-257 melanoma
RPMI-8226 leukemia = test system: RPMI-8226 leukemia
SK-MEL-2 melanoma = test system: SK-MEL-2 melanoma
SK-OV-3 ovarian = test system: SK-OV-3 ovarian
KM20L2 colon = test system: KM20L2 colon
SN12C renal = test system: SN12C renal
UO-31 renal = test system: UO-31 renal
TK-10 renal = test system: TK-10 renal
SNB-19 CNS = test system: SNB-19 CNS
DLD-1 colon = test system: DLD-1 colon
CCRF-CEM leukemia = test system: CCRF-CEM leukemia
NCI-H522 lung = test system: NCI-H522 lung
HOP-18 NSCLC = test system: HOP-18 NSCLC
OVCAR-5 ovarian = test system: OVCAR-5 ovarian
ACHN renal = test system: ACHN renal
SK-MEL-5 melanoma = test system: SK-MEL-5 melanoma
DMS 273 small cell lung = test system: DMS 273 small cell lung
SNB-75 CNS = test system: SNB-75 CNS

Measured: TGI

CCc1cccc(CC)c1NC(=O)C(=O)Cc1nc2ccccc2o1
> 100 µM: M14 melanoma | NCI-H23 lung | HCT-15 colon | OVCAR-3 ovarian | A498 renal | SF-295 CNS | DMS 114 small cell lung | MOLT-4 leukemia | HCC-2998 colon | NCI-H226 lung | HL-60(TB) leukemia | 786-0 renal | SK-MEL-28 melanoma | RXF 393 renal | EKVX NSCLC | MALME-3M melanoma | HOP-92 NSCLC | CAKI-1 renal | SNB-78 CNS | M19-MEL melanoma | UACC-62 melanoma | KM12 colon | HOP-62 NSCLC | OVCAR-4 ovarian | A549 NSCLC | SR leukemia | HT29 colon | OVCAR-8 ovarian | NCI-H460 lung | HCT-116 colon | LOX IMVI melanoma | IGROV1 ovarian | LXFL 529 NSCLC | SW-620 colon | SF-539 CNS | SF-268 CNS | COLO 205 colon | K-562 leukemia | U251 CNS | UACC-257 melanoma | RPMI-8226 leukemia | SK-MEL-2 melanoma | SK-OV-3 ovarian | KM20L2 colon | SN12C renal | UO-31 renal | TK-10 renal | SNB-19 CNS | DLD-1 colon | CCRF-CEM leukemia | NCI-H522 lung | HOP-18 NSCLC | OVCAR-5 ovarian | ACHN renal

COc1cccc2c1C(=O)C1(O)CCCCC21 (stereo not drawn)
> 100 µM: M14 melanoma | SK-MEL-5 melanoma | NCI-H23 lung | HCT-15 colon | OVCAR-3 ovarian | A498 renal | SF-295 CNS | DMS 114 small cell lung | MOLT-4 leukemia | HCC-2998 colon | NCI-H226 lung | HL-60(TB) leukemia | DMS 273 small cell lung | 786-0 renal | SK-MEL-28 melanoma | RXF 393 renal | MALME-3M melanoma | CAKI-1 renal | SNB-78 CNS | M19-MEL melanoma | UACC-62 melanoma | KM12 colon | HOP-62 NSCLC | OVCAR-4 ovarian | A549 NSCLC | HT29 colon | OVCAR-8 ovarian | NCI-H460 lung | HCT-116 colon | LOX IMVI melanoma | IGROV1 ovarian | LXFL 529 NSCLC | SW-620 colon | SF-539 CNS | SF-268 CNS | COLO 205 colon | K-562 leukemia | U251 CNS | UACC-257 melanoma | RPMI-8226 leukemia | SK-MEL-2 melanoma | SK-OV-3 ovarian | KM20L2 colon | SN12C renal | UO-31 renal | TK-10 renal | SNB-19 CNS | DLD-1 colon | CCRF-CEM leukemia | NCI-H522 lung | SNB-75 CNS | HOP-18 NSCLC | OVCAR-5 ovarian | ACHN renal
